# BigSolDB 2.1
compound,measurement,setting,value
CC(=O)N[C@H](C(=O)O)C(C)C,solubility (mole fraction),"in 1,4-dioxane, 288.15 K",0.0324
same,solubility (mole fraction),"in 1,4-dioxane, 293.15 K",0.0363
same,solubility (mole fraction),"in 1,4-dioxane, 298.15 K",0.0427
same,solubility (mole fraction),"in 1,4-dioxane, 303.15 K",0.0495
same,solubility (mole fraction),"in 1,4-dioxane, 308.15 K",0.06
same,solubility (mole fraction),"in 1,4-dioxane, 313.15 K",0.0712
same,solubility (mole fraction),"in 1,4-dioxane, 318.15 K",0.0805
same,solubility (mole fraction),"in 1,4-dioxane, 323.15 K",0.0921
same,solubility (mole fraction),"in 1,4-dioxane, 328.15 K",0.109
same,solubility (mole fraction),"in 2-butanone, 283.15 K",0.00606
same,solubility (mole fraction),"in 2-butanone, 288.15 K",0.00748
same,solubility (mole fraction),"in 2-butanone, 293.15 K",0.00907
same,solubility (mole fraction),"in 2-butanone, 298.15 K",0.0112
same,solubility (mole fraction),"in 2-butanone, 303.15 K",0.0141
same,solubility (mole fraction),"in 2-butanone, 308.15 K",0.0176
same,solubility (mole fraction),"in 2-butanone, 313.15 K",0.021
same,solubility (mole fraction),"in 2-butanone, 318.15 K",0.0245
same,solubility (mole fraction),"in 2-butanone, 323.15 K",0.0292
same,solubility (mole fraction),"in acetone, 283.15 K",0.0102
same,solubility (mole fraction),"in acetone, 288.15 K",0.0133
same,solubility (mole fraction),"in acetone, 293.15 K",0.0163
same,solubility (mole fraction),"in acetone, 298.15 K",0.0196
same,solubility (mole fraction),"in acetone, 303.15 K",0.0238
same,solubility (mole fraction),"in acetone, 308.15 K",0.0284
same,solubility (mole fraction),"in acetone, 313.15 K",0.0333
same,solubility (mole fraction),"in acetone, 318.15 K",0.039
same,solubility (mole fraction),"in acetone, 323.15 K",0.0437
same,solubility (mole fraction),"in acetonitrile, 283.15 K",0.00204
same,solubility (mole fraction),"in acetonitrile, 288.15 K",0.0026
same,solubility (mole fraction),"in acetonitrile, 293.15 K",0.00352
same,solubility (mole fraction),"in acetonitrile, 298.15 K",0.00464
same,solubility (mole fraction),"in acetonitrile, 303.15 K",0.0055
same,solubility (mole fraction),"in acetonitrile, 308.15 K",0.00668
same,solubility (mole fraction),"in acetonitrile, 313.15 K",0.00792
same,solubility (mole fraction),"in acetonitrile, 318.15 K",0.00909
same,solubility (mole fraction),"in acetonitrile, 323.15 K",0.0105
same,solubility (mole fraction),"in dimethyl carbonate, 283.15 K",0.00116
same,solubility (mole fraction),"in dimethyl carbonate, 288.15 K",0.00139
same,solubility (mole fraction),"in dimethyl carbonate, 293.15 K",0.00169
same,solubility (mole fraction),"in dimethyl carbonate, 298.15 K",0.0021
same,solubility (mole fraction),"in dimethyl carbonate, 303.15 K",0.00261
same,solubility (mole fraction),"in dimethyl carbonate, 308.15 K",0.00331
same,solubility (mole fraction),"in dimethyl carbonate, 313.15 K",0.00395
same,solubility (mole fraction),"in dimethyl carbonate, 318.15 K",0.00489
same,solubility (mole fraction),"in dimethyl carbonate, 323.15 K",0.00611
same,solubility (mole fraction),"in ethyl acetate, 283.15 K",0.00279
same,solubility (mole fraction),"in ethyl acetate, 288.15 K",0.00342
same,solubility (mole fraction),"in ethyl acetate, 293.15 K",0.00403
same,solubility (mole fraction),"in ethyl acetate, 298.15 K",0.00487
same,solubility (mole fraction),"in ethyl acetate, 303.15 K",0.006
same,solubility (mole fraction),"in ethyl acetate, 308.15 K",0.00718
same,solubility (mole fraction),"in ethyl acetate, 313.15 K",0.00847
same,solubility (mole fraction),"in ethyl acetate, 318.15 K",0.01
same,solubility (mole fraction),"in ethyl acetate, 323.15 K",0.0119
same,solubility (mole fraction),"in isobutanol, 283.15 K",0.0341
same,solubility (mole fraction),"in isobutanol, 288.15 K",0.0396
same,solubility (mole fraction),"in isobutanol, 293.15 K",0.0465
same,solubility (mole fraction),"in isobutanol, 298.15 K",0.0566
same,solubility (mole fraction),"in isobutanol, 303.15 K",0.0648
same,solubility (mole fraction),"in isobutanol, 308.15 K",0.0777
same,solubility (mole fraction),"in isobutanol, 313.15 K",0.0881
same,solubility (mole fraction),"in isobutanol, 318.15 K",0.101
same,solubility (mole fraction),"in isobutanol, 323.15 K",0.114
same,solubility (mole fraction),"in isopropanol, 283.15 K",0.0401
same,solubility (mole fraction),"in isopropanol, 288.15 K",0.048
same,solubility (mole fraction),"in isopropanol, 293.15 K",0.0558
same,solubility (mole fraction),"in isopropanol, 298.15 K",0.0662
same,solubility (mole fraction),"in isopropanol, 303.15 K",0.0782
same,solubility (mole fraction),"in isopropanol, 308.15 K",0.091
same,solubility (mole fraction),"in isopropanol, 313.15 K",0.104
same,solubility (mole fraction),"in isopropanol, 318.15 K",0.12
same,solubility (mole fraction),"in isopropanol, 323.15 K",0.134
same,solubility (mole fraction),"in methyl acetate, 283.15 K",0.00339
same,solubility (mole fraction),"in methyl acetate, 288.15 K",0.00393
same,solubility (mole fraction),"in methyl acetate, 293.15 K",0.00485
same,solubility (mole fraction),"in methyl acetate, 298.15 K",0.0058
same,solubility (mole fraction),"in methyl acetate, 303.15 K",0.00694
same,solubility (mole fraction),"in methyl acetate, 308.15 K",0.0082
same,solubility (mole fraction),"in methyl acetate, 313.15 K",0.00972
same,solubility (mole fraction),"in methyl acetate, 318.15 K",0.0112
same,solubility (mole fraction),"in methyl acetate, 323.15 K",0.0128
same,solubility (mole fraction),"in n-butanol, 283.15 K",0.0371
same,solubility (mole fraction),"in n-butanol, 288.15 K",0.0428
same,solubility (mole fraction),"in n-butanol, 293.15 K",0.0506
same,solubility (mole fraction),"in n-butanol, 298.15 K",0.0595
same,solubility (mole fraction),"in n-butanol, 303.15 K",0.0685
same,solubility (mole fraction),"in n-butanol, 308.15 K",0.0786
same,solubility (mole fraction),"in n-butanol, 313.15 K",0.0902
same,solubility (mole fraction),"in n-butanol, 318.15 K",0.104
same,solubility (mole fraction),"in n-butanol, 323.15 K",0.115
same,solubility (mole fraction),"in n-propanol, 283.15 K",0.0449
same,solubility (mole fraction),"in n-propanol, 288.15 K",0.0512
same,solubility (mole fraction),"in n-propanol, 293.15 K",0.06
same,solubility (mole fraction),"in n-propanol, 298.15 K",0.0747
same,solubility (mole fraction),"in n-propanol, 303.15 K",0.0876
same,solubility (mole fraction),"in n-propanol, 308.15 K",0.111
same,solubility (mole fraction),"in n-propanol, 313.15 K",0.13
same,solubility (mole fraction),"in n-propanol, 318.15 K",0.151
same,solubility (mole fraction),"in n-propanol, 323.15 K",0.171
same,solubility (mole fraction),"in water, 283.15 K",0.00557
same,solubility (mole fraction),"in water, 288.15 K",0.00611
same,solubility (mole fraction),"in water, 293.15 K",0.0066
same,solubility (mole fraction),"in water, 298.15 K",0.00748
same,solubility (mole fraction),"in water, 303.15 K",0.00872
same,solubility (mole fraction),"in water, 308.15 K",0.01
same,solubility (mole fraction),"in water, 313.15 K",0.0116
same,solubility (mole fraction),"in water, 318.15 K",0.0137
same,solubility (mole fraction),"in water, 323.15 K",0.0159
